Patent US9278940B2, “Cyclic amines as bromodomain inhibitors” (Zenith Epigenetics Corp., priority 2012, dated 2016)

Columns and labels:
[1] = target: T1, Brd4 bromodomain 1 (Homo sapiens, UniProt O60885); assay: Inhibition of tetra-acetylated histone H4 binding to BET bromodomain (TR-FRET); parameters: key: Active: Compounds with an IC50 value less than 30 μM were deemed to be active.; Not Active: Compounds with an IC50 value less than 30 μM were deemed to be active; details: Brd4 bromodomain 1, tetra-acetylated histone H4 peptide
T1 construct: made in house; host or cells: E. coli BL21(DE3)
Procedure: Proteins were cloned and overexpressed with a N-terminal 6×His tag, then purified by nickel affinity followed by size exclusion chromatography. Briefly, E. coli BL21(DE3) cells were transformed with a recombinant expression vector encoding N-terminally Nickel affinity tagged bromodomains from Brd2, Brd3, Brd4. Cell cultures were incubated at 37° C. with shaking to the appropriate density and induced overnight with IPTG. The supernatant of lysed cells was loaded onto Ni-IDA column for purification. Eluted protein is pooled, concentrated and further purified by size exclusion chromatography. Fractions representing monomeric protein were pooled, concentrated, aliquoted, and frozen at −80° C. for use in subsequent experiments.
Binding of tetra-acetylated histone H4 and BET bromodomains was confirmed by a Time Resolved Fluorescence Resonance Energy Transfer (TR-FRET) method. N-terminally His-tagged bromodomains (200 nM) and biotinylated tetra-acetylated histone H4 peptide (25-50 nM, Millipore) were incubated in the presence of Europium Cryptate-labeled streptavidin (Cisbio Cat. #610SAKLB) and XL665-labeled monoclonal anti-His antibody (Cisbio Cat. #61HISXLB) in a white 96 well microtiter plate (Greiner). For inhibition assays, serially diluted test compound was added to these reactions in a 0.2% final concentration of DMSO. Final buffer concentrations were 30 mM HEPES pH 7.4, 30 mM NaCl, 0.3 mM CHAPS, 20 mM phosphate pH 7.0, 320 mM KF, 0.08% BSA). After 2 hours incubation at room temperature, the fluorescence by FRET was measured at 665 and 620 nm by a SynergyH4 plate reader (Biotek). The binding inhibitory activity was shown by a decrease in 665 nm fluorescence relative to 620 nm. IC50 values were determined from a dose response curve.

[2] = system: c-myc; assay: Inhibition of c-myc expression (mRNA, real-time PCR) in MV4-11 cells; format: cell-based; parameters: key: Active: Compounds with an IC50 value less than 30 μM were deemed to be active.; Not Active: Compounds with an IC50 value less than 30 μM were deemed to be active; details: Human AML MV4-11 cells, 3 hours
Procedure: MV4-11 cells (2.5×10^4 cells) were plated in 96 well U-bottom plates with test compound or DMSO (0.1%), and incubated for 3 hours at 37° C. Cells were then harvested by centrifugation, lysed, and mRNA was isolated using the mRNA catcher plus kit (Invitrogen). Reverse transcription of the mRNA and duplex amplification of the c-myc and cyclophilin cDNAs was performed using the RNA Ultrasense kit (Invitrogen) and a ViiA7 real-time PCR machine (Applied Biosystems). IC50 values were determined from a dose response curve.

[3] = system: Human AML MV-4-11 cells; assay: Inhibition of cell proliferation in MV4-11 cells; format: cell-based; parameters: key: Active: Compounds with an IC50 value less than 30 μM are deemed to be active.; Not Active: Compounds with an IC50 value less than 30 μM are deemed to be active; details: 72 hours
Procedure: MV4-11 cells: 96-well plates were seeded with 5×10^4 cells per well of exponentially growing human AML MV-4-11 (CRL-9591) cells and immediately treated with two-fold dilutions of test compounds, ranging from 30 μM to 0.2 μM. Triplicate wells were used for each concentration, as well as a media only and three DMSO control wells. The cells and compounds were incubated at 37° C., 5% CO2 for 72 hours before adding 20 μL of the CellTiter Aqueous One Solution (Promega) to each well and incubating at 37° C., 5% CO2 for an additional 3-4 hours. The absorbance was taken at 490 nm in a spectrophotometer and the percentage of proliferation relative to DMSO-treated cells was calculated after correction from the blank well. IC50 were calculated using the GraphPad Prism software.

[4] = system: hIL-6 mRNA; assay: Inhibition of hIL-6 mRNA transcription in LPS-stimulated U937 macrophages; format: cell-based, human; parameters: key: Active: Compounds with an IC50 value less than 30 μM are deemed to be active.; Not Active: Compounds with an IC50 value less than 30 μM are deemed to be active; details: U937 cells differentiated with PMA, 1 h pretreatment, LPS 3 h
Procedure: In this example, hIL-6 mRNA in tissue culture cells was quantitated to measure the transcriptional inhibition of hIL-6 when treated with a compound of the present disclosure.
A human leukemic monocyte lymphoma cell line (U937) was plated (3.2×10^4 cells per well) in a 96-well plate in […] RPMI-1640 containing 10% FBS and penicillin/streptomycin, and differentiated into macrophages for 3 days in 60 ng/mL PMA ([…]) at 37° C. in 5% CO2 prior to the addition of the compound of interest. The cells were pretreated for 1 h with the test compound prior to stimulation with 1 ug/mL lipopolysaccharide from Escherichia coli. The cells were incubated at 37-C for 3 h before the cells were harvested. At time of harvest, the spent media was removed from the cells and the cells were rinsed in 200 μL PBS. Cell lysis solution (70 μL) was added the cells in each well and incubated for 5-10 min at room temperature, to allow for complete cell lysis and detachment. mRNA was then prepared using the “mRNA Catcher PLUS plate” (Invitrogen), according to the protocol supplied. After the last wash, as much wash buffer as possible was aspirated without allowing the wells to dry. Elution buffer (E3, 70 μL) was then added to each well. mRNA was then eluted by incubating the mRNA Catcher PLUS plate with Elution Buffer for 5 min at 68° C. and then immediately placing the plate on ice.
The eluted mRNA isolated was then used in a one-step quantitative real-time PCR reaction, using components of the Ultra Sense Kit together with Applied Biosystems primer-probe mixes. Real-time PCR data was analyzed, normalizing the Ct values for hIL-6 to an internal control, prior to determining the fold induction of each unknown sample, relative to the control.

[5] = system: hApoA-1 mRNA; assay: Up-regulation of hApoA-1 mRNA transcription in Huh7 cells; format: cell-based, human; parameters: key: Active: Compounds with an EC170 value less than 30 μM are deemed to be active.; Not Active: Compounds with an EC170 value less than 30 μM are deemed to be active; details: 48 hrs treatment, ApoA-I mRNA
Procedure: In this example, ApoA-I mRNA in tissue culture cells was quantitated to measure the transcriptional up-regulation of ApoA-I when treated with a compound of the present disclosure.
Huh7 cells ([…] per well) were plated in a 96-well plate using 100 μL DMEM per well, (Gibco DMEM supplemented with penicillin/streptomycin and 10% FBS), 24 h before the addition of the compound of interest. After 48 hrs treatment, the spent media was removed from the Huh-7 cells and placed on ice (for immediate use) or at −80° C. (for future use) with the “LDH cytotoxicity assay Kit II” from Abcam. The cells remaining in the plate were rinsed with 100 μL PBS.
Then 85 μL of cell lysis solution was added to each well and incubated for 5-10 minutes at room temperature, to allow for complete cell lysis and detachment. mRNA was then prepared using the “mRNA Catcher PLUS plate” from Life Technologies, according to the protocol supplied. After the last wash, as much wash buffer as possible was aspirated without allowing the wells to dry. Elution Buffer (E3, 80 μL) was then added to each well. mRNA was then eluted by incubating the mRNA Catcher PLUS plate with Elution Buffer for 5 minutes at 68° C., and then 1 minute at 4° C. Catcher plates with mRNA eluted were kept on ice for use or stored at −80° C.
The eluted mRNA isolated was then used in a one-step real-time PCR reaction, using components of the Ultra Sense Kit together with Life Technologies primer-probe mixes. Real-time PCR data was analyzed, using the Ct values, to determine the fold induction of each unknown sample, relative to the control (that is, relative to the control for each independent DMSO concentration).
Compounds with an EC170 value less than 30 μM are deemed to be active.

| FRET activity (IC50 < 30 μM) [1] | c-myc activity (IC50 < 30 μM) [2] | cell proliferation activity (IC50 < 30 μM) [3] | IL-6 activity (IC50 < 30 μM) [4] | melting point | Structure (SMILES) | ApoA-1 activity (EC170 < 30 μM) [5] |
| --- | --- | --- | --- | --- | --- | --- |
| Active | – | – | Not Active | 241 °C (dec.) | COc1cc(OC)c2c(=O)[nH]c(-c3cccc(N4CCN(CCC(=O)O)CC4)n3)nc2c1 [Example 11, 3-(4-(6-(5,7-Dimethoxy-4-oxo-3,4-dihydroquinazolin-2-yl)pyridin-2-yl)piperazin-1-yl)propanoic acid] | Not Active |
| Active | Active | Active | Active | 175 to 177 °C | COc1cc(OC)c2c(=O)[nH]c(-c3cccc(N4CCN(CCO)CC4)n3)nc2c1 [Example 4, 2-(6-(4-(2-Hydroxyethyl)piperazin-1-yl)pyridin-2-yl)-5,7-dimethoxyquinazolin-4(3H)-one] | Active |
| Active | Active | Active | Active | 99 to 101 °C | COCCN1CCN(c2cccc(-c3nc4cc(OC)cc(OC)c4c(=O)[nH]3)n2)CC1 [Example 3, 5,7-Dimethoxy-2-(6-(4-(2-methoxyethyl)piperazin-1yl)pyridin-2-yl)quinazolin-4(3H)-one] | Active |
| Active | Active | Active | Active | 188 to 189 °C | COc1cc(OC)c2c(=O)[nH]c(-c3cccc(N4CCN(CC(C)C)CC4)n3)nc2c1 [Example 5, 2-(6-(4-Isobutylpiperazin-1-yl)pyridin-2-yl)-5,7-dimethoxyquinazolin-4(3H)-one] | Active |

The next lines start with the compound.

| Structure (SMILES) | FRET activity (IC50 < 30 μM) [1] | c-myc activity (IC50 < 30 μM) [2] | cell proliferation activity (IC50 < 30 μM) [3] | IL-6 activity (IC50 < 30 μM) [4] | melting point | ApoA-1 activity (EC170 < 30 μM) [5] |
| --- | --- | --- | --- | --- | --- | --- |
| COc1cc(-c2nc3cc(OC)cc(OC)c3c(=O)[nH]2)cc(N2CCN(C(C)C)CC2)c1 [Example 2, 2-(3-(4-Isopropylpiperazin-1-yl)-5-methoxyphenyl)-5,7-dimethoxyquinazolin-4(3H)-one] | Active | Active | Active | Active | 212 to 213 °C | Active |
| COc1cc(OC)c2c(=O)[nH]c(-c3ccc(OC)c(N4CCN(C(C)C)CC4)n3)nc2c1 [Example 14, 2-(6-(4-Isopropylpiperazin-1-yl)-5-methoxypyridin-2-yl)-5,7-dimethoxyquinazolin-4(3H)-one] | Active | Active | Active | Not Active | 208 to 210 °C | Active |
| COc1cc(OC)c2c(=O)[nH]c(-c3cccc(N4CCN(C(C)C)CC4)c3)nc2c1 [Example 1, 2-(3-(4-Isopropylpiperazin-1-yl)phenyl)-5,7-dimethoxyquinazolin-4(3H)-one] | Active | Active | Not Active | Active | 251 to 253 °C | Active |
| COc1cc(OC)c2c(=O)[nH]c(-c3cccc(N4CCN(C(C)CO)CC4)n3)nc2c1 (stereo not shown) [Example 8, 2-(6-(4-(1-Hydroxypropan-2-yl)piperazin-1-yl)pyridin-2-yl)-5,7-dimethoxyquinazolin-4(3H)-one] | Active | Active | Active | Active | 202 to 204 °C | Active |
| COc1cc(OC)c2c(=O)[nH]c(-c3cccc(N4CCN(C(C)C(N)=O)CC4)n3)nc2c1 (stereo not shown) [Example 9, 2-(4-(6-(5,7-Dimethoxy-4-oxo-3,4-dihydroquinazolin-2-yl)pyridin-2-yl)piperazin-1-yl)propanamide] | Active | Not Active | Active | Not Active | 149 to 150 °C | Active |
